# Tested on: human (tumor) Hif2α (EPAS1) mRNA
# Experiment: Hif2α knockdown in orthotopic RCC tumor bearing mice, single injection of RNAi trigger-delivery polymer conjugate, RT-qPCR (Table 7)
# Assay type: in vivo
# Conditions: RNAi trigger 50 μg, polymer 064 125 μg; single tail vein injection; relative to isotonic glucose
# In short: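 Female athymic nude mice carried orthotopic A498-SEAP ccRCC kidney tumours, used 5–6 weeks after implantation. They received one tail-vein injection of RGD-targeted Hif2α RNAi trigger–polymer conjugate or isotonic glucose. Tumour Hif2α mRNA was measured by TaqMan RT-qPCR normalised to CycA (ΔΔCT) and expressed relative to glucose-treated mice.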
row,Substance,Relative Expression day 4 (Hif2α mRNA in kidney tumor)
1,"AD03262 (antisense AUUCAUGAAAUCGUUACGUUG; sense ACGUAACGAUUUCAUGAAUT; Hif2alpha RNAi agent antisense strand; modified_base 2,8,10,14 /mod_base = “2′-deoxy-2′-fluoro corresponding nucleoside”; modified_base 1,3,4,5,6,7,9,11,12,13,15,16,17,18,19,20,21 /mod_base = “2′-O-methyl corresponding nucleoside”; modified_base 2,3,20,21 /mod_base = “5′-phosphorothioate corresponding nucleotide”; Hif2alpha RNAi agent sense strand; modified_base 7,8,9 /mod_base = “2′-deoxy-2′-fluoro corresponding nucleoside”; modified_base 1,2,3,4,5,6,10,11,12,13,14,15,16,17,18,19 /mod_base = “2′-O-methyl corresponding nucleoside”; modified_base 20 /mod_base = “3′-3′-linked nucleotide”; modi)",0.197
2,"AD03263 (antisense AUUCAUGAAAUCGUUACGUUG; sense ACGUAACGAUUUCAUGAAUN; Hif2alpha RNAi agent antisense strand; modified_base 2,8,10,14 /mod_base = “2′-deoxy-2′-fluoro corresponding nucleoside”; modified_base 1,3,4,5,6,7,9,11,12,13,15,16,17,18,19,20,21 /mod_base = “2′-O-methyl corresponding nucleoside”; modified_base 2,3,20,21 /mod_base = “5′-phosphorothioate corresponding nucleotide”; Hif2alpha RNAi agent sense strand; modified_base 7,8,9 /mod_base = “2′-deoxy-2′-fluoro corresponding nucleoside”; modified_base 1,2,3,4,5,6,10,11,12,13,14,15,16,17,18,19 /mod_base = “2′-O-methyl corresponding nucleoside”; modified_base 20 /mod_base = “3′-3′-linked abasic site”; mod)",0.134
3,"AD03264 (antisense UUUCAUGAAAUCGUUACGUUG; sense ACGUAACGAUUUCAUGAAAT; Hif2alpha RNAi agent antisense strand; modified_base 2,3,8,10,14 /mod_base = “2′-deoxy-2′-fluoro corresponding nucleoside”; modified_base 1,4,5,6,7,9,11,12,13,15,16,17,18,19,20,21 /mod_base = “2′-O-methyl corresponding nucleoside”; modified_base 2,3,20,21 /mod_base = “5′-phosphorothioate corresponding nucleotide”; Hif2alpha RNAi agent sense strand; modified_base 7,8,9 /mod_base = “2′-deoxy-2′-fluoro corresponding nucleoside”; modified_base 1,2,3,4,5,6,10,11,12,13,14,15,16,17,18,19 /mod_base = “2′-O-methyl corresponding nucleoside”; modified_base 20 /mod_base = “3′-3′-linked nucleotide”; modi)",0.264

# — patent US9976141B2, “Compositions and methods for inhibiting gene expression of Hif2alpha” (Arrowhead Madison Inc., priority 2015, dated 2018)
